Reference: EP2295560A1, “Directed evolution of arginine deiminase for increased activity at physiological pH” (priority 2009, dated 2011)

Target: Pseudomonas plecoglossicida arginine deiminase (PpADI) variant M2 (K5T D44E H404R) (Pseudomonas plecoglossicida, UniProt A7LKB0, D44E/H404R/K5T)
Experiment: Determination of kcat and Km (citrulline colorimetric assay, purified enzyme)
Format: biochemical, Pseudomonas plecoglossicida CGMCC2039
Conditions: pH 7.4, conversion of arginine to citrulline, compared to wild type
Method: The kcat and Km values were determined from initial velocity data measured as a function of substrate concentration. Enzyme reaction was carried out at 37°C in a water bath. After 10 min preincubation at 37"C, the enzyme reaction was initiated by addition of purified enzyme (50 µl, 0.2-0.5 µM) to the substrate solution (200 µl, 0.2 mM to 10 mM of arginine, 0.5 M phosphate buffer, pH 7.4) in deep well plates. The reaction mixture was incubated (37°C) and every two minutes reaction mixture (30 µl) of each well was transferred to acid-ferric solution (30 µl) to stop the enzyme reaction. The color development was subsequently performed in 96-well PCR plate. Ferric-acid solution (90 µl) and DAM-TSC solution (15 µl) were added to each well. The 96-well PCR plate was then incubated (70°C, 30 min) in thermal cycler (Eppendorf Mastercyler gradient) for color development, followed by incubation in ice water to stop color development. Absorbance was measured at 530 nm using a microtiter plate reader (SPECTROstar Omega, BMG LABTECH, Offenburg, Germany). […] The kcat was calculated from the ratio of Vmax, and enzyme concentration. […]

Sequence of Pseudomonas plecoglossicida arginine deiminase (PpADI) variant M2 (K5T D44E H404R) (A7LKB0 whole entry D44E/H404R/K5T): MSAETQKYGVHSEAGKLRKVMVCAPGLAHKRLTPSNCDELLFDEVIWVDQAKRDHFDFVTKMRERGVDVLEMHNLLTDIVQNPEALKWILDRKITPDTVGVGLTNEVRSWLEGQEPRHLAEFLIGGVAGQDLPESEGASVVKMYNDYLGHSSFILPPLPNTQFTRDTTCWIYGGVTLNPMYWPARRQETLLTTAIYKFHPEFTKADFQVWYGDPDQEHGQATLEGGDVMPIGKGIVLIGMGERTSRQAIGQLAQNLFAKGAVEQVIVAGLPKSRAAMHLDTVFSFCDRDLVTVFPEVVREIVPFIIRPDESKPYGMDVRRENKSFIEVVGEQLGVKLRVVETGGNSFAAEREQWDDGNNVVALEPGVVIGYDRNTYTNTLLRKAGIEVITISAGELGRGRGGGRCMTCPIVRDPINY

SMILES: N=C(N)NCCC[C@H](N)C(=O)O [arginine]
- kcat, fold higher than wild type PpADI: 4 fold
